Values joined by “and” are separate entries in the source; they are usually repeats but may differ in a detail not shown here. Identical values can stand only once.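 Five compound concentrations were applied to cells in 96-well plates for 48 hours; endpoints were derived by simple linear interpolation of the resulting dose-response curve. Abbreviation: GI50, concentration required for 50% inhibition of growth. The concentration for full growth arrest is given as TGI.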
Columns and labels:
Experiment in all cases: NCI tumour cell line growth inhibition, 48 h
HCT-15 colon = test system: HCT-15 colon
HL-60(TB) leukemia = test system: HL-60(TB) leukemia
UO-31 renal = test system: UO-31 renal
HCT-116 colon = test system: HCT-116 colon
MOLT-4 leukemia = test system: MOLT-4 leukemia
SR leukemia = test system: SR leukemia
HT29 colon = test system: HT29 colon
ACHN renal = test system: ACHN renal
RXF 393 renal = test system: RXF 393 renal
NCI-H23 lung = test system: NCI-H23 lung

| SMILES | GI50 (HCT-15 colon) | TGI (HCT-15 colon) | GI50 (HL-60(TB) leukemia) | TGI (HL-60(TB) leukemia) | GI50 (UO-31 renal) | TGI (UO-31 renal) | GI50 (HCT-116 colon) | TGI (HCT-116 colon) | GI50 (MOLT-4 leukemia) | TGI (MOLT-4 leukemia) | GI50 (SR leukemia) | TGI (SR leukemia) | GI50 (HT29 colon) | TGI (HT29 colon) | GI50 (ACHN renal) | TGI (ACHN renal) | GI50 (RXF 393 renal) | TGI (RXF 393 renal) | GI50 (NCI-H23 lung) | TGI (NCI-H23 lung) |
| --- | --- | --- | --- | --- | --- | --- | --- | --- | --- | --- | --- | --- | --- | --- | --- | --- | --- | --- | --- | --- |
| CCN(Cc1cccc(C)c1)c1ccc(CO)c(Cl)c1 | 12.1 µM | 33.1 µM | 14.1 µM | 41.1 µM | 6.47 µM | 20.6 µM | 0.203 µM | 10.7 µM | 18.5 µM | > 64.3 µM | 21.6 µM | > 62 µM | 4.12 µM | 16.2 µM | 14.6 µM | 29.1 µM | 6.52 µM | 21.9 µM | 10.1 µM | 25.5 µM |
| COc1ccc(C2C3=C(COC3=O)N(CCO)c3cc4c(cc32)CCC4)cc1OC (stereo not given) | 1.65 µM | > 50 µM | 0.328 µM | > 10.5 µM | 1.13 µM | > 50 µM | 0.524 µM | > 50 µM | 2.1 µM | > 50 µM | 0.253 µM | > 50 µM | 0.62 µM | > 10.3 µM | 4.32 µM | > 50 µM | 0.207 µM |  | 1.36 µM | > 50 µM |
| CCOC(=O)Nc1ccc2nc(Sc3ccc(Cl)cc3)sc2c1 | 0.632 µM | > 87.3 µM | 0.815 µM | 30.1 µM | 9.57 µM | 79.4 µM | 1.19 µM | 39.3 µM | 4.2 µM | > 87.6 µM | 0.358 µM | > 32.9 µM | 0.518 µM | 13.3 µM | 11.5 µM | > 90.4 µM | 2.99 µM | 18.8 µM | 10.2 µM | > 100 µM |
| Clc1ccc2c(NCCNc3nc(Cl)nc4ccccc34)ccnc2c1 | 1.14 µM | 2.55 µM | 0.231 µM | 0.656 µM | 1.5 µM | 2.94 µM | 0.218 µM | 0.531 µM | 0.332 µM | 1.25 µM | 0.268 µM | 0.866 µM | 0.193 µM | 0.377 µM | 1.61 µM | 3 µM | 1.73 µM | 3.37 µM | 1.83 µM | 3.7 µM |
| O=C(N/N=C\c1cc(Br)cc(Br)c1O)N/N=C/c1cc(Br)cc(Br)c1O | 2.77 µM | 16.1 µM | 1.28 µM | 4.76 µM | 1.8 µM | 8.7 µM | 5.96 µM | 22.3 µM | 2.14 µM | 11.4 µM | 1.13 µM | 26.7 µM | 5.93 µM | 18.3 µM | 4.06 µM | 13.5 µM | 3.57 µM | 27.3 µM | 6.21 µM | 23.5 µM |
| Cc1cccc(Cc2cnc(NC(=O)/C=C/c3ccco3)s2)c1 | 0.0427 µM | > 100 µM | 0.0281 µM | 0.0837 µM | 0.0847 µM | > 100 µM | 0.0425 µM | > 100 µM | 0.0561 µM | > 100 µM | 0.0342 µM | > 100 µM | 0.0373 µM | > 100 µM | 0.0645 µM | > 100 µM | 0.0221 µM | 0.0643 µM | 0.108 µM | > 100 µM |
| NC(=S)c1cn(C2OC(CO)C(O)C2O)c2ncnc(N)c12 (stereo not given) | 0.191 µM |  | 0.18 µM | 26.7 µM | 0.275 µM | 1.68 µM | 0.0876 µM | > 33.9 µM | 0.0386 µM | 0.261 µM | 0.0625 µM |  | 0.181 µM | 3.96 µM | 0.229 µM |  | 0.307 µM | > 100 µM | 0.139 µM | 0.677 µM |
| COC(=O)C1=C(C)NC(C)=C(C(=O)OC)C1c1ccccc1[N+](=O)[O-] | 65.8 µM | > 100 µM | 31.7 µM | > 100 µM | 50 µM | > 100 µM | > 100 µM | > 100 µM | 78.2 µM | > 100 µM | 34.7 µM | > 100 µM | > 100 µM | > 100 µM | 76.9 µM | > 100 µM | 36 µM | > 100 µM | > 100 µM | > 100 µM |
| Cc1cccc2c1C(=O)OC2(c1cccc2ccccc12)c1cccc2ccccc12 |  | > 100 µM |  | > 100 µM |  | > 100 µM |  | > 100 µM |  | > 100 µM |  | > 100 µM |  | > 100 µM |  | > 100 µM |  | 94.3 µM |  | > 100 µM |
| C=CCN1C(=O)C/C(=C2/CCC(=O)N2CC=C)C1=O |  | > 100 µM |  | > 100 µM |  | > 100 µM |  | > 100 µM |  | > 100 µM |  | > 100 µM |  | > 100 µM |  | > 100 µM |  | > 100 µM |  | > 100 µM |
| O=C(O)c1ccccc1/C=C1/Nc2ccccc2C1=O |  | > 100 µM |  | > 100 µM |  | > 100 µM |  | > 100 µM |  | > 100 µM |  | > 100 µM |  | > 100 µM |  | > 100 µM |  | > 100 µM |  | > 100 µM |
| Nc1cc2ccncc2c2ccccc12 | 11.8 µM | > 100 µM | 20 µM | 61.9 µM | 4.1 µM | 45.6 µM | 4.85 µM | > 100 µM | 5.35 µM | > 100 µM | 8.56 µM | 47.9 µM | 13.2 µM | 43 µM | 4.44 µM | 58.5 µM | 10.8 µM | 29 µM | 16.7 µM | 80.1 µM |
| CCC[CH2][Sn]1([CH2]CCC)[O]N=Cc2ccccc2[O]1 | 0.808 µM | 2.04 µM | 0.183 µM | 0.726 µM | 1.33 µM | 2.61 µM | 1.43 µM | 2.73 µM | 0.335 µM | 1.9 µM | 0.342 µM | 2.75 µM | 1.75 µM | 3.36 µM | 1.18 µM | 2.43 µM | 0.224 µM | 1.05 µM | 0.413 µM | 1.68 µM |
| CCN(CC)c1ccc(/C=C2/NC(=O)NC2=O)cc1 | 3.21 µM | > 100 µM | 4.9 µM | > 100 µM |  | > 100 µM | 3.65 µM | > 100 µM | 17.6 µM | > 100 µM | 0.605 µM | > 100 µM | 2.83 µM | > 100 µM | 26.5 µM | > 100 µM | 4.34 µM | 17.5 µM | 7.97 µM | > 100 µM |
| CCCCCCCC(=O)O[C@H]1[C@H]2[C@@H](CC1(C)C)C(=O)[C@]13O[C@H]1C(=O)[C@]1(CO1)[C@]23C |  | 8.26 µM and 7.9 µM | 0.381 µM | 4.57 µM and 2.04 µM | 5.73 µM | 12.9 µM and 28.2 µM | 3.07 µM and 1.63 µM | 12.4 µM and 3.8 µM | 1.17 µM | 10.9 µM and 2.68 µM |  | > 38.7 µM |  | 14.4 µM and 14.9 µM |  | 4.09 µM | 1.93 µM | 3.97 µM and 5.31 µM | 12.5 µM | 28.4 µM and 8.51 µM |
| CC[C@@]1(O)C(=O)N(CCN(C)C)Cc2c1cc1n(c2=O)Cc2cc3ccccc3nc2-1 | 33.1 µM | > 100 µM | 5.4 µM | > 100 µM | 9.41 µM | > 100 µM | 12.4 µM | > 100 µM | 3.93 µM | > 100 µM | 6.24 µM | > 100 µM | 24.6 µM | > 100 µM | 4.31 µM | > 100 µM | 71.4 µM | > 100 µM | 8.35 µM | > 100 µM |
| CC(=O)O[C@H]1Cc2c([nH]c3ccccc23)[C@@H](c2ccc(Cl)cc2)N1C(=O)CCNC(C)(C)C | 4.05 µM | 8.32 µM | 2.51 µM | 11.7 µM | 1.45 µM | 6.08 µM | 1.64 µM | 6.32 µM | 2.16 µM | 8.99 µM | 1.09 µM | 6.11 µM | 1.59 µM | 5.57 µM | 4.13 µM | 8.29 µM | 2.52 µM | 6.83 µM | 5.12 µM | 10.5 µM |
| O=C1NC(=Nc2ccccc2Cl)SC1C(=O)Nc1ccc([N+](=O)[O-])cc1[N+](=O)[O-] (stereo not given) |  | > 100 µM |  | > 100 µM |  | > 100 µM |  | > 100 µM |  | > 100 µM |  | > 100 µM |  | > 100 µM |  | > 100 µM |  | > 100 µM |  | > 100 µM |
| CCc1cc(Nc2nccc(-c3c(-c4ccc(OC)c(C(=O)Nc5c(F)cccc5F)c4)nc4ccccn34)n2)c(OC)cc1N1CCC(N2CCN(S(C)(=O)=O)CC2)CC1 | > 100 µM | > 100 µM | > 100 µM | > 100 µM | > 100 µM | > 100 µM | 88.8 µM | > 100 µM | > 100 µM | > 100 µM | > 100 µM | > 100 µM |  | > 100 µM | > 100 µM | > 100 µM | > 47 µM | > 100 µM | > 100 µM | > 100 µM |
| CCn1c(-c2nonc2N)nc2c(C#CC(C)(C)O)ncc(OCC3CCNCC3)c21 | 16.5 µM | > 25 µM | 6.63 µM | 17.2 µM | 6.42 µM | 18.5 µM | 6.67 µM | > 20.9 µM | 8.3 µM | > 25 µM | 8.08 µM | 24.4 µM | 10.4 µM | > 25 µM | 8.13 µM | > 25 µM | 2.54 µM | 7.28 µM | > 19.2 µM | > 25 µM |
| Cc1cncc2cccc(S(=O)(=O)N3CCCNC[C@@H]3C)c12 | 16.3 µM | > 100 µM | 36.2 µM | 100 µM | 2.16 µM | 23.8 µM | 7.56 µM | > 100 µM | 20.7 µM | > 96.3 µM | 3.55 µM | > 91.2 µM | 29.3 µM | > 100 µM | 14.2 µM | > 100 µM | 1.82 µM | 19.8 µM | 31.5 µM | > 100 µM |
| C=C1C(=O)O[C@H]2[C@H]1CC/C(COC(=O)c1ccc(Br)cc1)=C\CC[C@@]1(C)O[C@@H]21 | 1.1 µM | 3.06 µM | 0.664 µM | 3.37 µM | 1.29 µM | 2.56 µM | 0.415 µM | 1.58 µM | 1.17 µM | 6.06 µM | 0.343 µM | 4.75 µM | 1.13 µM | 3.43 µM | 1.45 µM | 2.76 µM | 1.46 µM | 2.84 µM | 1.6 µM | 3.41 µM |
